Literature values, collected in patent US20110082545A1, “DRUG ELUTING BREAST IMPLANT COVER OR COATING” (LIPOSE CORPORATION, priority 2009, published 2011).

Tested on: capsular contracture
Settings: administered orally

For `COc1cc(C(=O)NS(=O)(=O)c2ccccc2C)ccc1Cc1cn(C)c2ccc(NC(=O)OC3CCCC3)cc12` [zafirlukast], the “ability to moderate the capsular contracture” value is listed as “demonstrated the ability to moderate the capsular contracture”.
